The source made the active and inactive calls. No cut-off for these calls is given here.
Legend:
Escherichia coli [1] = assay: Induction of pBR322 DNA interstand cross link at 100 uM by agarose gel electrophoresis assay
Escherichia phage T7 [2] = assay: Inhibition of T7 RNA polymerase transcription at 20 uM after irradiation; assay type: functional
DNA = assay: Binding affinity to calf thymus DNA at 2 uM by thermal denaturation study; assay type: nucleic-acid assay; conditions: Bos taurus
Escherichia coli [3] = assay: Induction of pBR322 DNA interstand cross link at 1 uM by agarose gel electrophoresis assay
Escherichia phage T7 [4] = assay: Inhibition of T7 RNA polymerase transcription at 5 uM after irradiation; assay type: functional
Escherichia phage T7 [5] = assay: Inhibition of T7 RNA polymerase transcription at 10 uM after irradiation; assay type: functional
Escherichia coli [6] = assay: Induction of pBR322 DNA interstand cross link at 5 uM by agarose gel electrophoresis assay
Escherichia coli [7] = assay: Induction of pBR322 DNA interstand cross link at pH 7.7 by agarose gel electrophoresis assay

With `C[N+](C)(C)Cc1cc(CCC(=O)NCCNC(=O)CCc2ccc(O)c(C[N+](C)(C)C)c2)ccc1O` the Activity (Escherichia coli [1]) was “inactive”, the Activity (Escherichia phage T7 [2]) was “inactive” and the ΔTm (DNA) was 0.5 °C.
With `COc1cc2nc(Nc3ccc(O)c(C[N+](C)(C)C)c3)nc(Nc3ccc(O)c(C[N+](C)(C)C)c3)c2cc1OC` the Activity (Escherichia coli [1]) was “Active”, the Activity (Escherichia coli [3]) was 28% and the Activity (Escherichia phage T7 [4]) was “Active”. For the same molecule, the Activity (Escherichia phage T7 [5]) was “Active”, the Activity (Escherichia coli [6]) was 46% and the ΔTm (DNA) was 8.6 °C. The Activity (Escherichia coli [7]) was “Active”.
For `COc1cc2nc(Nc3ccc(O)c(C[N+](C)(C)C)c3)nc(N)c2cc1OC`, the Activity (Escherichia phage T7 [4]) was “Active”, the Activity (Escherichia phage T7 [5]) was “Active” and the ΔTm (DNA) was 7.4 °C.
`COc1cc2nc(Cl)nc(Nc3ccc(O)c(C[N+](C)(C)C)c3)c2cc1OC` was tested, and the Activity (Escherichia phage T7 [4]) was “Active”, the Activity (Escherichia phage T7 [5]) was “Active” and the ΔTm (DNA) was 5.8 °C.

Source: ChEMBL document CHEMBL1137513, “Synthesis and biological activities of quinazoline derivatives with ortho-phenol-quaternary ammonium salt groups” (Bioorg Med Chem, 2007)
